Laboratory results reported in patent publication US8129518B2, “Synthetic polysaccharide antigens for immunological intervention in disease” (Eli Lilly and Company, priority 2004, dated 2012).

Columns and labels:
Type in all cases: cell-based
[1] = tested on: human monocyte-derived iDC; test: Uptake by immature dendritic cells, confocal microscopy; conditions: two minutes incubation at 37° C.; labeled Compound 1 50 μg/ml, FITC-dextran 1 mg/ml
Experimental: Briefly, Oregon-green (Molecular Probes, Eugene, Oreg.)-conjugated Lipid II is included in an MtgA polymerization reaction at a ratio of 1:4 with unlabeled Lipid II to produce a 25% Oregon-green labeled polymer. The polymeric material is purified and treated as previously described. […] After incubation, extracellular probe is removed by washing the cells four times in ice cold complete DC medium (Example 5). Washed cells are then incubated at 37° C. and staining is stopped at two-minute intervals by washing in 1% paraformaldehyde fix diluted in flow wash solution (which also contains the metabolic poison sodium azide; protocol described in Example 5). Glass slide samples are prepared at each time interval and sealed with clear nail polish. Samples are stored at −20° C. and protected from light until analysis on a Radiance 2100 confocal microscope (BioRad Laboratories, Hercules, Calif.).

[2] = tested on: human monocyte-derived dendritic cells; test: Kinetics of uptake by immature dendritic cells, flow cytometry; conditions: 0° C., cells metabolically inactive
Experimental: In these experiments, human monocyte-derived dendritic cells are prepared as described in Example 5. Dendritic cells are resuspended at 5×10^5 cells/sample and incubated on ice at […] At 0, 2, 10, 20, 30, 40, and 50 minutes after the start of incubation, uptake is stopped by washing the cells with four washes of ice cold flow wash buffer (Example 5). The washed cells are fixed in paraformaldehyde also as described in Example 5. Stained, fixed cells are stored at 4° C. protected from light until analysis using a FC500 flow cytometer (Beckman Coulter, Miami, Fla.).

human TLR-2 = molecular target: T1, human TLR-2 (Homo sapiens, UniProt O60603); conditions: 1 ng/ml, positive stimulation control
T1 construct: expressed in transfected cells; host or cells: HEK293 cells (ATCC), transiently transfected with Fugene6
T1 sequence (O60603 21-784): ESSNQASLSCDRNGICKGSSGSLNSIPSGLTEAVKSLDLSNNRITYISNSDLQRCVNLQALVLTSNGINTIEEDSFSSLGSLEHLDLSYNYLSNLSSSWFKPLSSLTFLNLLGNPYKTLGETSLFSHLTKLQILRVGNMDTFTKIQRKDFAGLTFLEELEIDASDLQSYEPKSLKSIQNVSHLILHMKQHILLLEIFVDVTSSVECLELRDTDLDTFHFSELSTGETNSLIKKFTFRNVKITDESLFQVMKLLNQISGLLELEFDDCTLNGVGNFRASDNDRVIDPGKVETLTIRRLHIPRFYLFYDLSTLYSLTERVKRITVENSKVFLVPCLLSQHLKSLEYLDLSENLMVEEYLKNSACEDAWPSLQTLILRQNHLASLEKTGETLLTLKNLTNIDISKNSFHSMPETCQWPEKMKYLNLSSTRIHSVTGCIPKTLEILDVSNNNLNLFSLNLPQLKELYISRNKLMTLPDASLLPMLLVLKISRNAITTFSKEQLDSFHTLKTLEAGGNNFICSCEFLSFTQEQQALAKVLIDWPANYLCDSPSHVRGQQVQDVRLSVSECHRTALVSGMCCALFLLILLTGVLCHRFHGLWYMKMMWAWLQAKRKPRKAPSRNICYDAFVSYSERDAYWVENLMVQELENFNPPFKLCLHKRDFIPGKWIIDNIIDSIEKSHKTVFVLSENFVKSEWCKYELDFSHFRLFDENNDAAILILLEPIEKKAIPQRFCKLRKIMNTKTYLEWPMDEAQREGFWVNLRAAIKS
Text: These experiments involve transfecting HEK293 cells (American Type Culture Collection, Manassas, Va.) with two plasmid DNAs. The first plasmid, pcDNA3.1/Hygro (Invitrogen), contains the human TLR-2 gene. The second plasmid, pNF-κB-luc (Stratagene, La Jolla, Calif.), encodes the NF-κB gene linked to a luciferase reporter gene whose product can be followed in vitro as a direct measure of NF-κB-activation. To prepare the DNA for transfection into the cells, Fugene6 (Roche, Basel Switzerland) transfecting reagent is diluted 1:6 in OPTI-MEM (Invitrogen, Carlsbad, Calif.) growth medium. Next, 75 ng of pNF-κB-luc and 300 ng of pcDNA3.1/Hygro DNA are added to the diluted Fugene6 and the mixture is incubated at 37° C. for 30 minutes. HEK293 cells at a concentration of 10^6 cells/ml are added to the DNA/Fugene6 mixture. […] The amount of luciferase activity resulting from incubation with the compounds is evaluated by removing the growth medium from the cells and replacing it with 100 μl of RLB lysis solution (Promega, Madison, Wis.). […] The luciferase activity of each cell culture is determined in a 25 μl aliquot of cell lysate in a Victor Luminometer (Perkin Elmer Life Sciences, Shelton, Conn.) according to the manufacturer's instructions. […]

FITC-Dextran
intracellular localization in iDCs (confocal images) [1]: Localization of polymer in endocytic vacuoles | uptake by iDCs over time (mean fluorescence intensity) [2]: uptake is inhibited

TNFα
increase in luciferase activity compared with unstimulated cultures (human TLR-2): 22.5 fold
